Assay results from patent US20200246432A1, “NITRIC OXIDE- AND FAS LIGAND- ELUTING COMPOSITIONS AND DEVICES AND METHODS OF TREATMENT USING SAME” (YALE UNIVERSITY, priority 2017, published 2020).

Experiments:
Assay type in all cases: cell-based
human aortic SMCs [1] = experiment: Fas receptor expression on cultured human aortic SMCs after NO donor treatment (staining); details: 0.1 mM DetaNONOate, 24 hours
Experimental: FIG. 2 is a set of images illustrating the finding that 24 hours of treatment with 0.1 mM DetaNONOate (NO donor) increased Fas receptors on the surface of human aortic SMCs dramatically. Blue=DAPI nuclei, red=Fas receptor. Scale bar: 50 μm.
Both local delivery of FasL, and increasing the Fas receptors on the surface of the target cells, can increase the efficiency of FasL-mediated apoptosis. Nitric oxide (NO) is known to increase surface Fas receptors on vascular SMCs (Fukuo et al., Hypertension, 1996. 27(3 Pt 2): p. 823-6; Boyle, Weissberg, and Bennett, Arterioscler Thromb Vasc Biol, 2002. 22(10): p. 1624-30). […] After 24 hours of treatment with DetaNONOate, Fas receptor expression on SMCs was increased (red stain, FIG. 2, right panel).

human aortic SMCs [2] = experiment: SMC apoptosis/killing, TUNEL staining, human aortic SMCs; details: DetaNONOate alone, up to 0.2 mM
Experimental: (§1) FIG. 3 is a set of graphs illustrating the finding that 48 hours of treatment with varying concentrations of human FasL and DetaNONOate (NO donor) increased apoptosis in human (left panel) and pig (right panel) aortic SMCs in a synergistic way.
(§2) Addition of FasL and NO donor DetaNONOate increased human and pig aortic SMC apoptosis in a synergistic fashion (FIG. 3). DetaNONOate alone, up to 0.2 mM concentration, led to minimal (<15%) death of human or porcine SMCs.

pig aortic SMCs = experiment: SMC apoptosis/killing, TUNEL staining, pig aortic SMCs; details: DetaNONOate alone, up to 0.2 mM
Experimental: as §1, §2

[3] = system: human umbilical vein endothelial cell (HUVEC); experiment: EC viability: HUVEC cell number, apoptosis, proliferation
Experimental: Next, the effect of FasL and NO donor combinations on EC viability was tested.

With `NCCN(CCN)N(O)N=O` [DetaNONOate, 2,2′-(2-Hydroxy-2-nitrosohydrazinylidene)bis-ethanamine] the “Fas receptor expression on SMCs” value (human aortic SMCs [1]) was “increased”, the “death of human SMCs” value (human aortic SMCs [2]) was less than 15% and the “death of porcine SMCs” value (pig aortic SMCs) was less than 15%. For the same compound, the EC viability ([3]; DetaNONOate 0.2 mM) was “negatively affected EC viability” and the “HUVEC cell number, rates of apoptosis or proliferation” value ([3]; DetaNONOate alone 0.1 mM, absence of FasL, 96 hours) was “did not affect”.
